{"source": "PubChem BioAssay AID2060899", "about": "(Molecular Pharmacology Branch, DTP, NCI, 2025)", "system": "565726-208-R1-J5-PDC complex spheroids, growth inhibition", "assay": "Anticancer human tumor 565726-208-R1-J5-PDC patient-derived pancreatic adenocarcinoma cell line growth inhibition [RAS]", "settings": "for pIC50: curve of first compound; for viability, T/C: stronger effect = lower value", "procedure,_shortened": "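Agents were tested in combination matrices in half-log decrements from a top concentration at or near clinical Cmax (10 microM if undetermined). Targets were multi-cell spheroids of tumour lines plus HUVEC and MSC stromal cells.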", "note": "pIC50: −log10 of the molar value.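 Note: spheroids exposed to compounds for seven days before readout.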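 Throughout, for viability, T/C: 100% = DMSO vehicle control viability.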", "data": [{"smiles": "C[C@@H](NC(=O)c1ncnc(N)c1Cl)c1ncc(C(=O)Nc2cc(C(F)(F)F)c(Cl)cn2)s1", "note": "+ C=CC(=O)N1CCN(c2nc(OCC3CCCN3C)nc3c(F)c(-c4nc(N)cc(C)c4C(F)(F)F)c(Cl)cc23)C(C)C1", "values": [{"measurement": "pIC50", "setting": "second compound 0.00316 µM", "result": "< 5.00"}, {"measurement": "pIC50", "setting": "second compound 0.01 µM", "result": "< 5.00"}, {"measurement": "pIC50", "setting": "second compound 0.0316 µM", "result": "< 5.00"}, {"measurement": "pIC50", "setting": "second compound 0.1 µM", "result": "< 5.00"}, {"measurement": "pIC50", "setting": "second compound 0.316 µM", "result": "< 5.00"}, {"measurement": "pIC50", "setting": "second compound 1 µM", "result": "< 5.00"}, {"measurement": "viability, T/C", "setting": "second compound 0.00316 µM, first compound 0.0316 µM", "result": 119, "unit": "%"}, {"measurement": "viability, T/C", "setting": "second compound 0.00316 µM, first compound 0.1 µM", "result": 151, "unit": "%"}, {"measurement": "viability, T/C", "setting": "second compound 0.00316 µM, first compound 0.316 µM", "result": 88.8, "unit": "%"}, {"measurement": "viability, T/C", "setting": "second compound 0.00316 µM, first compound 1 µM", "result": 98.3, "unit": "%"}, {"measurement": "viability, T/C", "setting": "second compound 0.00316 µM, first compound 3.16 µM", "result": 77.7, "unit": "%"}, {"measurement": "viability, T/C", "setting": "second compound 0.00316 µM, first compound 10 µM", "result": 78.3, "unit": "%"}, {"measurement": "viability, T/C", "setting": "second compound 0.01 µM, first compound 0.0316 µM", "result": 95.5, "unit": "%"}, {"measurement": "viability, T/C", "setting": "second compound 0.01 µM, first compound 0.1 µM", "result": 140, "unit": "%"}, {"measurement": "viability, T/C", "setting": "second compound 0.01 µM, first compound 0.316 µM", "result": 94.5, "unit": "%"}, {"measurement": "viability, T/C", "setting": "second compound 0.01 µM, first compound 1 µM", "result": 89.1, "unit": "%"}, {"measurement": "viability, T/C", "setting": "second compound 0.01 µM, first compound 3.16 µM", "result": 91.9, "unit": "%"}, {"measurement": "viability, T/C", "setting": "second compound 0.01 µM, first compound 10 µM", "result": 67.8, "unit": "%"}, {"measurement": "viability, T/C", "setting": "second compound 0.0316 µM, first compound 0.0316 µM", "result": 115, "unit": "%"}, {"measurement": "viability, T/C", "setting": "second compound 0.0316 µM, first compound 0.1 µM", "result": 129, "unit": "%"}, {"measurement": "viability, T/C", "setting": "second compound 0.0316 µM, first compound 0.316 µM", "result": 92.8, "unit": "%"}, {"measurement": "viability, T/C", "setting": "second compound 0.0316 µM, first compound 1 µM", "result": 99.3, "unit": "%"}, {"measurement": "viability, T/C", "setting": "second compound 0.0316 µM, first compound 3.16 µM", "result": 88.2, "unit": "%"}, {"measurement": "viability, T/C", "setting": "second compound 0.0316 µM, first compound 10 µM", "result": 70.9, "unit": "%"}, {"measurement": "viability, T/C", "setting": "second compound 0.1 µM, first compound 0.0316 µM", "result": 120, "unit": "%"}, {"measurement": "viability, T/C", "setting": "second compound 0.1 µM, first compound 0.1 µM", "result": 123, "unit": "%"}, {"measurement": "viability, T/C", "setting": "second compound 0.1 µM, first compound 0.316 µM", "result": 102, "unit": "%"}, {"measurement": "viability, T/C", "setting": "second compound 0.1 µM, first compound 1 µM", "result": 97.2, "unit": "%"}, {"measurement": "viability, T/C", "setting": "second compound 0.1 µM, first compound 3.16 µM", "result": 98.7, "unit": "%"}, {"measurement": "viability, T/C", "setting": "second compound 0.1 µM, first compound 10 µM", "result": 83.4, "unit": "%"}, {"measurement": "viability, T/C", "setting": "second compound 0.316 µM, first compound 0.0316 µM", "result": 86.7, "unit": "%"}, {"measurement": "viability, T/C", "setting": "second compound 0.316 µM, first compound 0.1 µM", "result": 128, "unit": "%"}, {"measurement": "viability, T/C", "setting": "second compound 0.316 µM, first compound 0.316 µM", "result": 104, "unit": "%"}, {"measurement": "viability, T/C", "setting": "second compound 0.316 µM, first compound 1 µM", "result": 101, "unit": "%"}, {"measurement": "viability, T/C", "setting": "second compound 0.316 µM, first compound 3.16 µM", "result": 106, "unit": "%"}, {"measurement": "viability, T/C", "setting": "second compound 0.316 µM, first compound 10 µM", "result": 76.9, "unit": "%"}, {"measurement": "viability, T/C", "setting": "second compound 1 µM, first compound 0.0316 µM", "result": 89.1, "unit": "%"}, {"measurement": "viability, T/C", "setting": "second compound 1 µM, first compound 0.1 µM", "result": 120, "unit": "%"}, {"measurement": "viability, T/C", "setting": "second compound 1 µM, first compound 0.316 µM", "result": 108, "unit": "%"}, {"measurement": "viability, T/C", "setting": "second compound 1 µM, first compound 1 µM", "result": 114, "unit": "%"}, {"measurement": "viability, T/C", "setting": "second compound 1 µM, first compound 3.16 µM", "result": 86.4, "unit": "%"}, {"measurement": "viability, T/C", "setting": "second compound 1 µM, first compound 10 µM", "result": 74.6, "unit": "%"}]}, {"smiles": "CC(C)n1nc(-c2ccc3oc(N)nc3c2)c2c(N)ncnc21", "note": "+ CCn1c(-c2cccnc2C(C)OC)c2c3cc(ccc31)N1CCOC(CC(NC(=O)C(C(C)C)N(C)C(=O)C3(F)CCN(C(=O)C#CC(C)(C)N(C)C)CC3)C(=O)N3CCCC(N3)C(=O)OCC(C)(C)C2)C1", "values": [{"measurement": "pIC50", "setting": "second compound 0.000949 µM", "result": 7.72}, {"measurement": "pIC50", "setting": "second compound 0.003 µM", "result": 7.57}, {"measurement": "pIC50", "setting": "second compound 0.00949 µM", "result": 7.61}, {"measurement": "pIC50", "setting": "second compound 0.03 µM", "result": 7.64}, {"measurement": "pIC50", "setting": "second compound 0.0949 µM", "result": 7.73}, {"measurement": "pIC50", "setting": "second compound 0.3 µM", "result": 7.89}, {"measurement": "viability, T/C", "setting": "second compound 0.000949 µM, first compound 0.000316 µM", "result": 95.6, "unit": "%"}, {"measurement": "viability, T/C", "setting": "second compound 0.000949 µM, first compound 0.001 µM", "result": 91.2, "unit": "%"}, {"measurement": "viability, T/C", "setting": "second compound 0.000949 µM, first compound 0.00316 µM", "result": 91.5, "unit": "%"}, {"measurement": "viability, T/C", "setting": "second compound 0.000949 µM, first compound 0.01 µM", "result": 59.8, "unit": "%"}, {"measurement": "viability, T/C", "setting": "second compound 0.000949 µM, first compound 0.0316 µM", "result": 43.4, "unit": "%"}, {"measurement": "viability, T/C", "setting": "second compound 0.000949 µM, first compound 0.1 µM", "result": 27.5, "unit": "%"}, {"measurement": "viability, T/C", "setting": "second compound 0.003 µM, first compound 0.000316 µM", "result": 101, "unit": "%"}, {"measurement": "viability, T/C", "setting": "second compound 0.003 µM, first compound 0.001 µM", "result": 90.5, "unit": "%"}, {"measurement": "viability, T/C", "setting": "second compound 0.003 µM, first compound 0.00316 µM", "result": 85.2, "unit": "%"}, {"measurement": "viability, T/C", "setting": "second compound 0.003 µM, first compound 0.01 µM", "result": 67.1, "unit": "%"}, {"measurement": "viability, T/C", "setting": "second compound 0.003 µM, first compound 0.0316 µM", "result": 46.5, "unit": "%"}, {"measurement": "viability, T/C", "setting": "second compound 0.003 µM, first compound 0.1 µM", "result": 28.1, "unit": "%"}, {"measurement": "viability, T/C", "setting": "second compound 0.00949 µM, first compound 0.000316 µM", "result": 103, "unit": "%"}, {"measurement": "viability, T/C", "setting": "second compound 0.00949 µM, first compound 0.001 µM", "result": 93.9, "unit": "%"}, {"measurement": "viability, T/C", "setting": "second compound 0.00949 µM, first compound 0.00316 µM", "result": 86.8, "unit": "%"}, {"measurement": "viability, T/C", "setting": "second compound 0.00949 µM, first compound 0.01 µM", "result": 69.8, "unit": "%"}, {"measurement": "viability, T/C", "setting": "second compound 0.00949 µM, first compound 0.0316 µM", "result": 43.2, "unit": "%"}, {"measurement": "viability, T/C", "setting": "second compound 0.00949 µM, first compound 0.1 µM", "result": 26.9, "unit": "%"}, {"measurement": "viability, T/C", "setting": "second compound 0.03 µM, first compound 0.000316 µM", "result": 83.2, "unit": "%"}, {"measurement": "viability, T/C", "setting": "second compound 0.03 µM, first compound 0.001 µM", "result": 91, "unit": "%"}, {"measurement": "viability, T/C", "setting": "second compound 0.03 µM, first compound 0.00316 µM", "result": 79, "unit": "%"}, {"measurement": "viability, T/C", "setting": "second compound 0.03 µM, first compound 0.01 µM", "result": 68.8, "unit": "%"}, {"measurement": "viability, T/C", "setting": "second compound 0.03 µM, first compound 0.0316 µM", "result": 43, "unit": "%"}, {"measurement": "viability, T/C", "setting": "second compound 0.03 µM, first compound 0.1 µM", "result": 26.7, "unit": "%"}, {"measurement": "viability, T/C", "setting": "second compound 0.0949 µM, first compound 0.000316 µM", "result": 93, "unit": "%"}, {"measurement": "viability, T/C", "setting": "second compound 0.0949 µM, first compound 0.001 µM", "result": 92.1, "unit": "%"}, {"measurement": "viability, T/C", "setting": "second compound 0.0949 µM, first compound 0.00316 µM", "result": 82.5, "unit": "%"}, {"measurement": "viability, T/C", "setting": "second compound 0.0949 µM, first compound 0.01 µM", "result": 62.1, "unit": "%"}, {"measurement": "viability, T/C", "setting": "second compound 0.0949 µM, first compound 0.0316 µM", "result": 40.2, "unit": "%"}, {"measurement": "viability, T/C", "setting": "second compound 0.0949 µM, first compound 0.1 µM", "result": 25.1, "unit": "%"}, {"measurement": "viability, T/C", "setting": "second compound 0.3 µM, first compound 0.000316 µM", "result": 89.3, "unit": "%"}, {"measurement": "viability, T/C", "setting": "second compound 0.3 µM, first compound 0.001 µM", "result": 85.1, "unit": "%"}, {"measurement": "viability, T/C", "setting": "second compound 0.3 µM, first compound 0.00316 µM", "result": 75.2, "unit": "%"}, {"measurement": "viability, T/C", "setting": "second compound 0.3 µM, first compound 0.01 µM", "result": 54.8, "unit": "%"}, {"measurement": "viability, T/C", "setting": "second compound 0.3 µM, first compound 0.0316 µM", "result": 33.8, "unit": "%"}, {"measurement": "viability, T/C", "setting": "second compound 0.3 µM, first compound 0.1 µM", "result": 24, "unit": "%"}]}]}
